Reference: patent US20220184081A1, “ANTIPRURITIC AGENT USING PAC1 RECEPTOR ANTAGONIST” (KAGOSHIMA UNIVERSITY, priority 2019, published 2022)
No end group written: not given here.

Tests used:
[1] = tested on: PACAP-induced itch behavior in mice; test: Itch behavior induced by PACAP intradermal administration; type: in vivo, mouse; settings: for biting, licking or scratching behavior induced by PACAP (100 pmol) intradermal administration: simultaneous intradermal administration with PACAP, 0.01 to 1 nmol, FIG. 7A, 8, 9
From the text: SLN indicates intradermal administration of normal saline. DMSO (10% solution, dissolved in normal saline) is a solvent for PA-8.
SLN indicates intradermal administration of normal saline. VEH (10% DMSO solution, dissolved in normal saline) is a solvent for PA-8 and the compound 2o.
SLN indicates intradermal administration of normal saline. VEH (10% DMSO solution, dissolved in normal saline) is a solvent for PA-9 and the compound 3d.

[2] = tested on: Compound 48/80-induced itch behavior in mice; test: Itch behavior induced by Compound 48/80 intradermal administration; type: in vivo, mouse; settings: intrathecal pre-administration (i.t., 10 minutes before i.d.), 1 nmol; Compound 48/80 100 μg/10 μL; FIG. 11
Protocol: (§1) Compound 48/80 (100 μg/10 μL) was intradermally injected into the waist of each mouse (intradermal injection, i.d.). The reaction of biting, licking or scratching the injected site was defined as itch behavior, and the behavioral time was counted every 5 minutes. […] DMSO (10% solution, dissolved in normal saline) is a solvent for PA-8 or PA-9.

[3] = tested on: psoriasis mouse model; test: Psoriasis mouse model (imiquimod); type: in vivo, ICR mice; settings: 30 mg/kg p.o. 30 minutes before 1 hour video observation; FIG. 14
Protocol: The present test was carried out with reference to the method of van der Fits et al. that is a test system published as a method for evaluating itch in animals (van der Fits L., Mounts S., Voerman J S A., et al.: Imiquimod-Induced Psoriasis-Like Skin Inflammation in Mice Is Mediated via the IL-23/IL-17 Axis, J. Immunol., 182, 5836-5845, 2009).
Five-week-old ICR mice (20 mice) were each placed in a cage, and were then conditioned for 1 week. Thereafter, three days before initiation of the test, the waist of each mouse was shaved. Then, 62.5 mg of commercially available imiquimod cream (5% Beselna Cream; MOCHIDA PHARMACEUTICAL CO., LTD.) was applied onto the shaved waist skin of the mice once a day for 5 days, so as to produce imiquimod-induced psoriasis model. Twenty-four hours after the final application of the cream (Day 5), video observation was carried out for 1 hour. The shaved 20 mice were divided into 5 groups (4 mice per group), namely, a 30 mg/kg PA-8 oral (p.o.) administration group, a 30 mg/kg compound 2o oral (p.o.) administration group, a 30 mg/kg PA-9 oral (p.o.) administration group, a 30 mg/kg compound 3d (p.o.) administration group, and a solvent administration group (VEH: oral administration of 10% DMSO aqueous solution). Oral administration was carried out 30 minutes before initiation of the video observation.

[4] = tested on: atopic dermatitis mouse model; test: Atopic dermatitis mouse model (DNFB); type: in vivo, ICR mice; settings: 30 mg/kg p.o. 30 minutes before 1 hour video observation; FIG. 13
Protocol: The present test was carried out with reference to the method of Kitamura et al. that is a test system published as a method for evaluating itch in animals (Kitamura A., Takata R., Aizawa S., et al.: A murine model of atopic dermatitis can be generated by painting the dorsal skin with hapten twice 14 days apart, Scientific Rep., 8: 5988, 2018).
Five-week-old ICR mice (30 mice) were each placed in a cage, and were then conditioned for 1 week. Thereafter, three days before initiation of the test, the waist of each mouse was shaved. On the experiment start date, for the purpose of destroying the function of skin barrier, tape stripping was carried out, and 0.15% 2,4-dinitrofluorobenzene (DNFB) solution [acetone/olive oil (3:1)] was applied to the shaved waist of each mouse, using a 100-μIL pipette. Seven days later, the 0.15% DNFB solution was applied thereto once again, and two hours later, video observation was carried out for 1 hour. The shaved 30 mice were divided into 5 groups (6 mice per group), namely, a 30 mg/kg PA-8 oral (p.o.) administration group, a 30 mg/kg compound 2o oral (p.o.) administration group, a 30 mg/kg PA-9 oral (p.o.) administration group, a 30 mg/kg compound 3d (p.o.) administration group, and a solvent administration group (VEH: oral administration of 10% DMSO aqueous solution). Oral administration was carried out 30 minutes before initiation of the video observation.
An outline of the procedures of a behavioral experiment using the atopic dermatitis mouse model is shown in FIG. 12, and the results obtained by evaluating the time spent in scratching of each group are shown in FIG. 13.

[5] = tested on: chloroquine-induced itch behavior in mice; test: Itch behavior induced by chloroquine intradermal administration; type: in vivo, mouse; settings: intrathecal pre-administration (i.t., 10 minutes before i.d.), 1 nmol; chloroquine 100 μg/10 μL; FIG. 10
Protocol: as §1, with “Chloroquine” for “Compound 48/80”

[6] = target: T1, mouse PAC1 receptor (Mus musculus, UniProt P70205); test: CREB phosphorylation by PACAP stimulus, Western blot, PAC1/CHO cells; type: cell-based; settings: PAC1/CHO cells; for CREB phosphorylation by PACAP (1 nM): compound 10 pM to 10 nM for 30 minutes before PACAP, FIG. 4A, 4C, 4D, 5
T1 construct: expressed in transfected cells; host or cells: CHO cells
T1 sequence (P70205 21-496): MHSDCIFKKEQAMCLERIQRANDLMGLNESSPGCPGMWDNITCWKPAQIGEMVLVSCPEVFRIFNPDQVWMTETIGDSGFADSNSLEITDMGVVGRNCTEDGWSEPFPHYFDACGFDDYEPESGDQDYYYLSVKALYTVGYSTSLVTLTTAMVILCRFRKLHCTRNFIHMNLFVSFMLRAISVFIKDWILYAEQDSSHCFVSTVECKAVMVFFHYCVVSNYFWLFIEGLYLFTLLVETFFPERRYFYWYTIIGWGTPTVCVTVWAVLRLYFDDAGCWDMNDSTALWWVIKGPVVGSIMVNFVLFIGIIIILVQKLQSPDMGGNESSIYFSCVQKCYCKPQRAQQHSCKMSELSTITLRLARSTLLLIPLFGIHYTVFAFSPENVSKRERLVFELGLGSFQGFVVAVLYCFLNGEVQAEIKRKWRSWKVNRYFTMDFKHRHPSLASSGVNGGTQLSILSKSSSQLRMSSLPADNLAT
Protocol: The effect of each compound on the phosphorylation of CREB (cAMP-responsive element-binding protein) produced by a PACAP stimulus was examined by Western blot analysis using an anti-phosphorylated CREB (pCREB) antibody with a mouse PAC1 receptor-expressing CHO cells (PAC1/CHO cells) and a mouse VPAC1 receptor-expressing CHO cells (VPAC1/CHO cells).
Specifically, treatment with a compound (PA-8, compound 2j and compound 2o) at 10 pM to 10 nM or a solvent therefor, DMSO (VEH: 0.1% DMSO-containing phosphate buffer solution) was performed for 30 minutes, 1 nM PACAP was then added, and protein was recovered within 30 minutes after a PACAP stimulus.
The effect of each compound on the phosphorylation of CREB (cAMP-responsive element-binding protein) produced by a PACAP stimulus was examined by Western blot analysis using an anti-phosphorylated CREB (pCREB) antibody with a mouse PAC1 receptor-expressing CHO cells (PAC1/CHO cells).

[7] = tested on: serotonin (5-HT)-induced itch mouse model; test: Serotonin (5-HT)-induced itch mouse model; type: in vivo; settings: intrathecal pre-administration 30 minutes before 5-HT 50 nmol i.d.; PA-8 0.1 or 1 nmol; P6-38 100 pmol; FIG. 1
Protocol: 5-HT (50 nmol, 10 μL) was intradermally injected into the waist of each mouse (intradermal injection, i.d.). The reaction of the mice to bite, lick or scratch the injected site was defined as an itch behavior, and the action time was measured every 5 minutes. […] SLN indicates the effects obtained in the case of administering normal saline instead of 5-HT. ACSF is an abbreviation of an artificial cerebrospinal fluid, which was a solvent for P6-38 and PA-8.

[8] = tested on: patients with atopic dermatitis; settings: patients with high severity, insufficient effect of topical steroids/tacrolimus; cited from earlier work
[9] = tested on: mice; test: Itch behavior upon waist intradermal administration of peptide; type: in vivo, mouse; settings: waist intradermal administration 10 μL; PACAP 1 to 1,000 pmol; VIP 100 pmol; FIG. 6
From the text: Accordingly, it is considered that this effect is mediated by the PAC1 receptors (FIG. 6).

Row | Compound | biting, licking or scratching behavior induced by PACAP (100 pmol) intradermal administration [1] | itch behavior induced by application of imiquimod (time spent in scratching) [3] | itch behavior induced by the DNFB treatment (time spent in scratching) [4] | CREB phosphorylation by PACAP (1 nM) [6] | also measured
1 | O=C(NCCc1c[nH]cn1)C1CC(=O)N(c2n[nH]c3ccccc23)C1 (centres unmarked) [PA-9] | suppressed in a dose-dependent manner | significantly suppressed | significantly suppressed | suppressed depending on the concentration | Compound 48/80-induced itch behavior [2]: almost completely suppressed; chloroquine-induced itch behavior [5]: almost completely suppressed
2 | CCOc1cccc(C2CC(=O)Nc3nc(N)[nH]c(=O)c32)c1 (centres unmarked) [compound 2j, 2-Amino-5-(3-ethoxyphenyl)-5,8-dihydro-3H,6H-pyrido[2,3-d]pyrimidine-4,7-dione] | – | – | – | suppressed depending on the concentration | –
3 | Nc1nc2c(c(=O)[nH]1)C(c1cccc(OC(F)(F)F)c1)CC(=O)N2 (centres unmarked) [compound 2o, 2-Amino-5-(3-trifluoromethoxyphenyl)-5,8-dihydro-3H,6H-pyrido[2,3-d]pyrimidine-4,7-dione] | suppressed in a dose-dependent manner | significantly suppressed | significantly suppressed | suppressed CREB phosphorylation | effect of suppressing CREB phosphorylation compared with PA-8 ([6]; 10 pM to 10 nM): slightly stronger effect of suppressing CREB phosphorylation than PA-8
4 | O=C(NCCc1c[nH]cn1)C1CC(=O)N(c2n[nH]c3c(Cl)cccc23)C1 (centres unmarked) [compound 3d, N-[2-(1H-imidazol-4-yl)ethyl]-1-(7-chloro-1H-indazol-3-yl)-5-oxo-3-pyrrolidinecarboxamide] | suppressed in a dose-dependent manner | significantly suppressed | significantly suppressed | suppressed depending on the concentration | –
5 | O=C1CC[C@@]2(O)[C@H]3Cc4ccc(O)c5c4[C@@]2(CCN3CC2CC2)[C@H]1O5 [naltrexone] | – | – | – | – | itch behavior induced by PACAP (100 pmol) intradermal administration ([1]; subcutaneous administration 1 mg/kg 15 minutes before PACAP, FIG. 7B): significantly suppressed
6 | PACAP 6-38 | – | – | – | – | 5-HT-induced itch behavior (bite, lick or scratch the injected site, action time) [7]: did not provide significant effects
7 | dupilumab: human type anti-human IL-4/IL-13 receptor monoclonal antibody | – | – | – | – | share of patients for whom the drug is effective [8]: approximately 40%
8 | vasoactive intestinal peptide (HSDAVFTDNYTRLRKQMAVKKYLNSILN; ends and bridges not checked; UniProt P01282 125-152, looked up) [VIP] | – | – | – | – | itch behavior (biting, licking or scratching the administered site) caused by the peptide [9]: such effect was not observed
